{"source": "paper PMC10298657", "about": "“QbD-Optimized, Phospholipid-Based Elastic Nanovesicles for the Effective Delivery of 6-Gingerol: A Promising Topical Option for Pain-Related Disorders” (International Journal of Molecular Sciences, 2023)", "assay": "ABTS radical scavenging activity", "assay_type": "biochemical", "conditions": "ABTS assay", "protocol": "The ability of the nanocarriers to scavenge the free radical ABTS was used to measure their antioxidant activity. To create an ABTS free radical, a stock solution of 7 mM ABTS was combined with 2.45 mM potassium persulfate and agitated in the dark for 12 h. […] Then, a standard solution (ascorbic acid) was mixed with the ABTS+ solution and incubated for 10 min in a 37 °C water bath. After that, various concentrations (10–100 µg/mL) of all samples were prepared in ethanol, 3 mL of the solution and 1 mL of the samples were combined, and the absorbance was measured at 734 nm using a UV spectrophotometer after 6 min [66]. Finally, the following equation was used to compute ABTS scavenging activity: Scavenging (%)=(Absorbance blank−Absorbance sample)/Absorbance blank×100"}
{"compound": "CCCCC[C@H](O)CC(=O)CCc1ccc(O)c(OC)c1", "note": "[Formulation 6-G, 6-gingerol]", "values": [{"measurement": "Antioxidant activity (ABTS scavenging)", "result": "67.01 ± 1.11", "unit": "%"}]}
{"compound": "O=C1O[C@H]([C@@H](O)CO)C(O)=C1O", "note": "[standard solution, ascorbic acid]", "values": [{"measurement": "Antioxidant activity (ABTS scavenging)", "result": "91.14 ± 0.24", "unit": "%"}]}
